Results from the OPERA property sets (Mansouri et al. 2018).

Structure (SMILES): CC(=O)NNC(=O)c1ccccc1N(C)C
- logP: 1.49

Structure (SMILES): COc1cc(C=NO)ccc1OCCO
- logP: 0.82

Structure (SMILES): CC(=O)OC[C@@H](OC(C)=O)[C@@H](OC(C)=O)[C@H](OC(C)=O)[C@H](C=O)OC(C)=O
- logP: 0.63

Structure (SMILES): CC(=O)NN=CCCc1ccccc1
- logP: 1.8

Structure (SMILES): COc1ccc(C(C)=O)c(N)c1
- logP: 1.76

Structure (SMILES): CSc1ccc(NC(C)=O)cc1
- logP: 2.03

Structure (SMILES): N#CN=Nc1ccccc1
- logP: 2.3

Structure (SMILES): O=C1/C(=C2\Nc3ccccc3C2=O)Nc2ccccc21
- logP: 3.72

Structure (SMILES): COc1ccc(-c2nc3ncccc3[nH]2)c(OC)c1
- logP: 2.57

Structure (SMILES): CCC(CC)C1=Nc2ccccc2S(=O)(=O)N1
- logP: 1.88

Structure (SMILES): CCOC(CCC#N)OCC
- logP: 0.75

Structure (SMILES): CCOCCOC(=O)C(C#N)=C(CC)Nc1ccc([N+](=O)[O-])cc1
- logP: 2.6

Structure (SMILES): CNC(=S)NCC(F)(F)C(F)(F)C(F)(F)F
- logP: 1.99

Structure (SMILES): CCC1(C)CCC(=O)NC1=O (centres undefined)
- logP: 0.23

Structure (SMILES): CC1(O)OC(=O)c2ccccc21 (centres undefined)
- logP: 0.81

Structure (SMILES): O=CC=Cc1ccco1
- logP: 1.15

Structure (SMILES): CCOC(=O)CNCCCCCSc1c2[nH]cnc2nc[n+]1[O-]
- logP: 0.87

Structure (SMILES): CC(=O)Nc1ccc(C(C)(C)C)cc1
- logP: 3.05

Structure (SMILES): CN(Cc1ccccc1)N=Nc1ccc(C(=O)O)cc1
- logP: 4.04

Structure (SMILES): COc1cc(C=O)ccc1OCCOC(=O)c1ccc(Cl)cc1
- logP: 3.71

Structure (SMILES): Cc1c(N2CCOCC2)c(=O)n(-c2ccccc2)c(=O)n1C
- logP: 0.69

Structure (SMILES): Cc1cccc(C)c1NC(=O)c1cccc(CN2CCCC2)c1
- logP: 3.1

Structure (SMILES): CC1=Nc2ccc(I)cc2S(=O)(=O)N1
- logP: 1.61

Structure (SMILES): ON=C(c1ccccc1)c1ccccc1
- logP: 3.2

Structure (SMILES): CC(Cl)C(=O)N(CC(=O)Nc1ccccc1)c1ccccc1 (centres undefined)
- logP: 3.02

Structure (SMILES): CSc1ccccc1NC(C)=O
- logP: 1.53

Structure (SMILES): COc1cc(C=O)ccc1OCCO
- logP: 0.58

Structure (SMILES): CC(=O)NCCC(=O)N(C)c1ccc(S(=O)(=O)N(C)C)cc1
- logP: -0.35

Structure (SMILES): NC(=O)Nc1cccc(NC(N)=O)c1
- logP: 0.58

Structure (SMILES): O=C(NC(CO)C(O)c1ccc(NC(=O)C2CC2)cc1)C(Cl)Cl (centres undefined)
- logP: 0.75

Structure (SMILES): COc1cc(C=NO)ccc1OCCOC(=O)c1ccccc1OC
- logP: 2.84

Structure (SMILES): COc1ccc(Cc2cnc(N)nc2N)c(OC)c1OC
- logP: 1.52

Structure (SMILES): CC(=O)OCCC(=O)N(C)c1ccc(S(=O)(=O)N(C)C)cc1
- logP: 0.26

Structure (SMILES): CCOC(=O)N=[N+]([O-])c1ccccc1
- logP: 2.53

Structure (SMILES): CC1=C(C(=O)O)N2C(=O)C(NC(=O)C(O)c3ccccc3)C2SC1 (centres undefined)
- logP: 0.46

Structure (SMILES): O=C(Cc1ccccc1)Nc1ccc(Cl)c(Cl)c1
- logP: 4.47

Structure (SMILES): Cc1c(-c2ccccc2)oc2ccccc2c1=O
- logP: 3.92

Structure (SMILES): CCC[Si](C)(C)C
- logP: 3.84

Structure (SMILES): CNC(=S)Nc1ccccc1
- logP: 0.85

Structure (SMILES): COc1cc(C)c2c(c1OC)-c1ccc(SC)c(=O)cc1C(NC1OCC(O)C(O)C1O)CC2 (centres undefined)
- logP: 1.4

Structure (SMILES): O=C(Nc1ccc(Cl)c(Cl)c1)C1CCCC1
- logP: 4.47

Structure (SMILES): CN(C(=O)CCO)c1ccc(S(=O)(=O)N(C)C)cc1
- logP: -0.26

Structure (SMILES): NC(=O)c1cccnc1N
- logP: 0.88

Structure (SMILES): Cc1cccc(C)c1NC(=O)c1ccc(CN2CCCCC2)cc1
- logP: 3.86

Structure (SMILES): COc1ccc(-c2nc3ccncc3[nH]2)c(OCCCCl)c1
- logP: 3.53

Structure (SMILES): CCN(CC)c1c(C)n(-c2ccccc2)c(=O)n(C)c1=O
- logP: 2.19

Structure (SMILES): CCN(CC)Cc1ccc(C(=O)Nc2c(C)cccc2C)cc1
- logP: 3.49

Structure (SMILES): CCCC1CC(C(=O)NC(C(C)Cl)C2OC(SC)C(O)C(O)C2O)N(CC)C1 (centres undefined)
- logP: 2.51

Structure (SMILES): CC(=O)Nc1ccccc1NC(C)=O
- logP: -0.03

Structure (SMILES): NC1=NS(=O)(=O)c2ccc(Cl)cc2N1
- logP: 0.91

Structure (SMILES): Cc1csc(N=C(N)N)n1
- logP: 1.24

Structure (SMILES): CCCCNc1c(C)n(C)c(=O)n(-c2ccccc2)c1=O
- logP: 1.69

Structure (SMILES): Cn1nnnc1SCc1ccccc1
- logP: 1.63

Structure (SMILES): Cc1nccnn1
- logP: -1.31

Structure (SMILES): N#CCC(=O)Nc1ccc(Cl)c(Cl)c1
- logP: 2.72

Structure (SMILES): CNC(=N[N+](=O)[O-])NCCSCc1nc[nH]c1C
- logP: 0.18

Structure (SMILES): CCOCCOC(=O)C(C#N)=C(CC)NCc1ccc([N+](=O)[O-])cc1
- logP: 2.64

Structure (SMILES): COC1OC(CNC(=O)N(C)N=O)C(O)C(O)C1O (centres undefined)
- logP: -1.57

Structure (SMILES): CC(C)=NO
- logP: 0.12
